# “Also recorded” adds a separate entry of the source. Like-named read-outs stand apart in the source and are kept apart here.
# Experiments:
# AdoHcy hydrolase [1] = biological target: T1, AdoHcy hydrolase (Bos taurus, UniProt Q3MHL4); assay: Inhibition of AdoHcy hydrolase from cow liver; assay type: biochemical; conditions: for IC50: read-out: I50
# T1 construct: AdoHcy hydrolase from cow liver; from tissue; host or cells: cow liver
# T1 sequence (Q3MHL4 2-432 limits assumed): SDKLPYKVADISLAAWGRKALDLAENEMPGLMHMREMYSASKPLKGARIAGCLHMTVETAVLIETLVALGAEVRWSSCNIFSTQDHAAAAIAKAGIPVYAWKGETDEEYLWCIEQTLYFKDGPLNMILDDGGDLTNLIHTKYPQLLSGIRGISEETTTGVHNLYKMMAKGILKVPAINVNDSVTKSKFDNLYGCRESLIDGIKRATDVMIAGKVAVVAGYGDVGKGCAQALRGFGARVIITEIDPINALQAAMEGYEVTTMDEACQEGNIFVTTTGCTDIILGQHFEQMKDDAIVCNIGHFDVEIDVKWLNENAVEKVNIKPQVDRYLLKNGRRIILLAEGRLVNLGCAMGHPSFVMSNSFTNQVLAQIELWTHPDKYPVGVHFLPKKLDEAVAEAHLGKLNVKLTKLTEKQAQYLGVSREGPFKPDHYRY
# RSV-BH = assay: Focus formation (oncogenic transformation) by RSV-BH in chick embryo cells; assay type: cell-based; conditions: for inhibition at 30 µM / inhibition at 100 µM: Gallus gallus
# Method: Additionally, the ability of these compounds to inhibit the oncogenic transformation of chick embryo cells induced by RSV-BH was examined.
# *Compounds were added 18 h after infection and foci were counted 7 days
# chick embryo cells = assay: Effects on host chick embryo cells; assay type: cell-based; conditions: 0.1 mM
# oncogenic virus = assay: Oncogenic virus-induced malignant transformation / viral replication, general statements; assay type: cell-based
# methyltransferases = conditions: AdoMet-utilizing methyltransferases; cited from earlier work
# AdoHcy hydrolase [2] = assay: Hydrolysis of the compound by AdoHcy hydrolase; assay type: biochemical
# Gross MLV = assay: Replication of Gross MLV in mouse embryo cells (UV-XC plaque assay); assay type: cell-based, Swiss mouse
# Method: (§1) Each point represents the mean number of UV-XC plaques per culture (triplicate assays)± the standarad deviation. The drug was dissolved in DMSO at the time of virus inoculation and was present throughout the incubation period. (B) Effect of treatment on the multiplication of host cells after 4 days exposure to drug. Each point represents the mean number of viable mouse embryo cells per culture ± the standard deviation. The initial number of cells plated was 3.5×10^5 cells.
# (§2) The ability of 5'-deoxy-5'-(isobutylthio)-3-deazaadenosine to inhibit replication of Gross MLV in mouse embryo cells was tested. […] The selectivity ratio (i.e., the highest noncytotoxic concentration of drug over the lowest effective concentration of drug) was about 10.
# mouse embryo cells = assay: Multiplication/cytotoxicity of mouse embryo host cells after 4 days exposure; assay type: cell-based, Swiss mouse; conditions: 30 to 100 μM
# Method: as §1, §2
# cells = assay: Tolerance by cells; assay type: cell-based
# [3] = AdoHcy hydrolase from cow liver
# [4] = non-competitive inhibition of AdoHcy hydrolase
# [5] = 0.03 mM, added 18 h after infection, counted 7 days later
# [6] = 0.1 mM, added 18 h after infection, counted 7 days later
# [7] = 0.1 mM, added 18 h after infection, counted 7 days later, read-out: % Inhibition of focus formation
# [8] = 168 h, read-out: Reduction of focus formation in RSV-BH infected cells
Compound,Type of inhibition of AdoHcy hydrolase (AdoHcy hydrolase [1]),IC50 (AdoHcy hydrolase [1]; [3]) [µM],Effect on focus formation / RSV activity (in words) (RSV-BH),No. of Foci (RSV-BH; [5]),No. of Foci (RSV-BH; [6]),inhibition at 30 µM (RSV-BH; [5]) [%],inhibition at 100 µM (RSV-BH; [7]) [%],Inhibition of AdoHcy hydrolase (in words) (AdoHcy hydrolase [1]),other results
CSC[C@H]1O[C@@H](n2cnc3c(N)ncnc32)[C@@H](O)[C@@H]1O [9-[5'-deoxy-5'-(methylthio)-β-D-arabinofuranosyl]-adenine],non-competitive,430,Neither 3-deaza-AdoHcy nor 9-[5'-deoxy-5'-(methylthio)- β-D-arabinofuranosyl]adenine had any significant effect on focus formation,274,298,17,9,,Ki (AdoHcy hydrolase [1]; [4]): 500 µM
"Nc1nccc2c1ncn2[C@@H]1O[C@H](CO)[C@@H](O)[C@H]1O [3-Deazaadenosine, 4-amino-1-β-D-ribofuranosyl [4,5-c]pyridine]",competitive inhibitor,,,106,17,68,95,most potent inhibitor of AdoHcy hydrolase,"IC50 (AdoHcy hydrolase [1]; AdoHcy hydrolase): 8 µM; Ki (AdoHcy hydrolase [1]; competitive inhibition of AdoHcy hydrolase): 3 µM; Potency relative to 5'-deoxy-5'-S-isobutyl-adenosine as inhibitor of AdoHcy hydrolase (AdoHcy hydrolase [1]; nearly 100-fold more potent than 5'-deoxy-5'-S-isobutyl-adenosine): ~100 fold; Effect on oncogenic transformation induced by Rous sarcoma virus and on its infectivity (RSV-BH): powerful, although reversible, effect; Sensitivity to drug by phase of virus replication (RSV-BH): maximal during the phase of virus replication which required the synthesis of viral mRNA and protein; inhibition at 100 µM (RSV-BH; [8]): 95%; Effects on the host cells (chick embryo cells): without noticeable effects on the host cells; Ability to inhibit viral replication, compared between the two compounds (oncogenic virus): almost equal"
"Nc1ncnc2c1ncn2[C@@H]1O[C@H](CSCC[C@H](N)C(=O)O)[C@@H](O)[C@H]1O [Adenosylhomocysteine, S-adenosyl-L-homocysteine]",,,,,,,,,Inhibition of methyltransferases (methyltransferases): inhibit competitively most of the methyltransferases; also recorded: competitive inhibitor
"Nc1ncnc2c1ncn2[C@@H]1O[C@H](CNCCC(N)C(=O)O)[C@@H](O)[C@H]1O (stereo partly drawn) [Nγ-adenosyl-α,γ-diamino-butyric acid]",non-competitive,140,,,,,,,Ki (AdoHcy hydrolase [1]; [4]): 300 µM
Nc1nccc2c1ncn2[C@@H]1O[C@H](CSCC[C@H](N)C(=O)O)[C@@H](O)[C@H]1O [3-Deazaadenosylhomocysteine],,,Neither 3-deaza-AdoHcy nor 9-[5'-deoxy-5'-(methylthio)- β-D-arabinofuranosyl]adenine had any significant effect on focus formation,330,276,0,16,,
CC(C)CSC[C@H]1O[C@@H](n2cnc3c(N)nccc32)[C@H](O)[C@@H]1O [5'-Deoxy-5'-(isobutylthio)-3-deazaadenosine],non-competitive inhibitor,280,good antiviral; also recorded: just as effective as 3-deazaadenosine itself; also recorded: has shown activity,93,3,72,99,potent inhibitors of AdoHcy hydrolase; also recorded: good activity,"Type of inhibition of AdoHcy hydrolase (AdoHcy hydrolase [1]; listed as 5'-deoxy-(isobutylthio)-3-deazaadenosine): non-competitive; Ki relative to the Ki of 3-deazaadenosine (AdoHcy hydrolase [1]; times higher than Ki of 3-deazaadenosine): about 100 times; Hydrolysis by AdoHcy hydrolase (AdoHcy hydrolase [2]): not to be hydrolyzed; inhibition at 100 µM (RSV-BH; [8]): 95%; Effects on the host cells (chick embryo cells): without noticeable effects on the host cells; inhibition at 3 µM (Gross MLV; 3 μM, Gross MLV in mouse embryo cells, read-out: Inhibition of plaque formation in the indicator XC cells): 85%; Inhibition of virus replication (in words) (Gross MLV; 30 to 100 μM, Gross MLV in mouse embryo cells): Complete inhibition; Selectivity ratio (highest noncytotoxic concentration over lowest effective concentration) (Gross MLV; Gross MLV in mouse embryo cells): about 10; Antiviral activity against Gross murine leukemia virus (in words) (Gross MLV; mouse embryo cells): good antiviral; also recorded: has shown activity; Cytotoxicity (mouse embryo cells): cytotoxicity was observed; Ability to inhibit viral replication, compared between the two compounds (oncogenic virus): almost equal; Reversal of malignant transformation induced by oncogenic virus (oncogenic virus): will reverse the malignant transformation; Tolerance by cells (cells): well tolerated by cells"
CC(C)CSC[C@H]1O[C@@H](n2cnc3c(N)ncnc32)[C@H](O)[C@@H]1O [5'-deoxy-5'-S-isobutyladenosine],,> 1000,,,,,,potent inhibitors of AdoHcy hydrolase,Tolerance by cells (cells): well tolerated by cells

# From patent publication US4210639A, “5'-Deoxy-5'-(isobutylthio)-3-deazaadenosine, method of making same and its antiviral effect on Rous sarcoma virus and Gross murine leukemia virus” (The United States of America as represented by the …, priority 1978, dated 1980)
